In brackets after ≈: the same amount, converted by molar mass.

What all share (assay type): functional
Experiment [1] deals with Candida albicans. Put plainly: Antifungal activity against Candida albicans isolate 6 by broth microdilution method. On the technique in general: Dilution methods test growth across graded concentrations, often in twofold steps.
Experiment [2] deals with Candida albicans. Put plainly: Antifungal activity against Candida albicans isolate 14 by broth microdilution method.
The test system of experiment [3] is Candida albicans. Put plainly: Antifungal activity against Candida albicans isolate 490 harboring ERG3 D147G, T330A, A351V and ERG11 F72S, T229A, E266D, N440S, V488I, R523G mutant genes by broth microdilution method.
Experiment [4] relates to Candida albicans. Put plainly: Antifungal activity against Candida albicans isolate 1008 harboring ERG3 K97E, L193P, V237A, A351V, A353T and ERG11 E266D mutant genes by broth microdilution method.
Experiment [5] has as its system Candida albicans. Put plainly: Antifungal activity against Candida albicans isolate 488 harboring ERG3 H243N, T330A, A351V and ERG11 D225G, E266D, E391G, V488I mutant genes by broth microdilution method.
The test system of experiment [6] is Candida albicans. Put plainly: Antifungal activity against Candida albicans isolate 12 harboring ERG3 W332R mutant gene by broth microdilution method.
Experiment [7] concerns Candida albicans. Put plainly: Antifungal activity against Candida albicans isolate 177 by broth dilution method.
The subject of experiment [8] is Candida albicans. Put plainly: Antifungal activity against Candida albicans isolate 488 harboring ERG3 H243N, T330A, A351V and ERG11 D225G, E266D, E391G, V488I mutant genes assessed as lanosterol/obtusifoliol content in total sterol composition at 0.5 times MIC by GC-MS analysis.
Experiment [9] deals with Candida albicans. Put plainly: Antifungal activity against Candida albicans isolate 1008 harboring ERG3 K97E, L193P, V237A, A351V, A353T and ERG11 E266D mutant genes assessed as ergosta 7,22-dienol content in total sterol composition at 0.5 times MIC by GC-MS analysis.
The test system of experiment [10] is Candida albicans. Put plainly: Antifungal activity against Candida albicans isolate 490 harboring ERG3 D147G, T330A, A351V and ERG11 F72S, T229A, E266D, N440S, V488I, R523G mutant genes assessed as 14alpha-methyl fecosterol content in total sterol composition at 0.5 times MIC by GC-MS analysis.
Experiment [11] deals with Candida albicans. Put plainly: Antifungal activity against Candida albicans isolate 1008 harboring ERG3 K97E, L193P, V237A, A351V, A353T and ERG11 E266D mutant genes assessed as lanosterol/obtusifoliol content in total sterol composition at 0.5 times MIC by GC-MS analysis.
Experiment [12] relates to Candida albicans. Put plainly: Antifungal activity against Candida albicans isolate 6 assessed as 14alpha-methylergosta-8,24(28)-dien-3beta,6alpha-diol content in total sterol composition at 0.5 times MIC by GC-MS analysis.
Experiment [13] relates to Candida albicans. Put plainly: Antifungal activity against Candida albicans isolate 12 harboring ERG3 W332R mutant gene assessed as 14alpha-methylergosta-8,24(28)-dien-3beta,6alpha-diol content in total sterol composition at 0.5 times MIC by GC-MS analysis.
For experiment [14], the system named is Candida albicans. Put plainly: Antifungal activity against Candida albicans isolate 6 assessed as ergosterol content in total sterol composition at 0.5 times MIC by GC-MS analysis.
In experiment [15] the test system is Candida albicans. Put plainly: Antifungal activity against Candida albicans isolate 488 harboring ERG3 H243N, T330A, A351V and ERG11 D225G, E266D, E391G, V488I mutant genes assessed as ergosterol content in total sterol composition at 0.5 times MIC by GC-MS analysis.
Experiment [16] concerns Candida albicans. Put plainly: Antifungal activity against Candida albicans isolate 488 harboring ERG3 H243N, T330A, A351V and ERG11 D225G, E266D, E391G, V488I mutant genes by broth microdilution method in presence of 10 uM drug efflux inhibitor FK506.
Experiment [17] relates to Candida albicans. Put plainly: Antifungal activity against Candida albicans isolate 14 assessed as 14alpha-methylergosta-8,24(28)-dien-3beta,6alpha-diol content in total sterol composition at 0.5 times MIC by GC-MS analysis.
The subject of experiment [18] is Candida albicans. Put plainly: Antifungal activity against Candida albicans isolate 177 by broth dilution method in presence of 10 uM drug efflux inhibitor FK506.
Experiment [19] relates to Candida albicans. Put plainly: Antifungal activity against Candida albicans isolate 1008 harboring ERG3 K97E, L193P, V237A, A351V, A353T and ERG11 E266D mutant genes assessed as eburicol content in total sterol composition at 0.5 times MIC by GC-MS analysis.
The test system of experiment [20] is Candida albicans. Put plainly: Antifungal activity against Candida albicans isolate 177 assessed as ergosterol content in total sterol composition at 0.5 times MIC by GC-MS analysis.
The test system of experiment [21] is Candida albicans. Put plainly: Antifungal activity against Candida albicans isolate 488 harboring ERG3 H243N, T330A, A351V and ERG11 D225G, E266D, E391G, V488I mutant genes assessed as eburicol content in total sterol composition at 0.5 times MIC by GC-MS analysis.
Experiment [22] concerns Candida albicans. Put plainly: Antifungal activity against Candida albicans isolate 490 harboring ERG3 D147G, T330A, A351V and ERG11 F72S, T229A, E266D, N440S, V488I, R523G mutant genes assessed as ergosterol content in total sterol composition at 0.5 times MIC by GC-MS analysis.
Experiment [23] relates to Candida albicans. Put plainly: Antifungal activity against Candida albicans isolate 490 harboring ERG3 D147G, T330A, A351V and ERG11 F72S, T229A, E266D, N440S, V488I, R523G mutant genes assessed as 14alpha-methylergosta-8,24(28)-dien-3beta,6alpha-diol content in total sterol composition at 0.5 times MIC by GC-MS analysis.
Experiment [24] deals with Candida albicans. Put plainly: Antifungal activity against Candida albicans isolate 12 harboring ERG3 W332R mutant gene by broth microdilution method in presence of 10 uM drug efflux inhibitor FK506.
The subject of experiment [25] is Candida albicans. Put plainly: Antifungal activity against Candida albicans isolate 6 by broth microdilution method in presence of 10 uM drug efflux inhibitor FK506.
The subject of experiment [26] is Candida albicans. Put plainly: Antifungal activity against Candida albicans isolate 177 assessed as eburicol content in total sterol composition at 0.5 times MIC by GC-MS analysis.
Experiment [27] deals with Candida albicans. Put plainly: Antifungal activity against Candida albicans isolate 14 assessed as lanosterol/obtusifoliol content in total sterol composition at 0.5 times MIC by GC-MS analysis.
Experiment [28] deals with Candida albicans. Put plainly: Antifungal activity against Candida albicans isolate 14 by broth microdilution method in presence of 10 uM drug efflux inhibitor FK506.
The test system of experiment [29] is Candida albicans. Put plainly: Antifungal activity against Candida albicans isolate 12 harboring ERG3 W332R mutant gene assessed as ergosterol content in total sterol composition at 0.5 times MIC by GC-MS analysis.
For experiment [30], the system named is Candida albicans. Put plainly: Antifungal activity against Candida albicans isolate 12 harboring ERG3 W332R mutant gene assessed as lanosterol/obtusifoliol content in total sterol composition at 0.5 times MIC by GC-MS analysis.
Experiment [31] concerns Candida albicans. Put plainly: Antifungal activity against Candida albicans isolate 6 assessed as eburicol content in total sterol composition at 0.5 times MIC by GC-MS analysis.
For experiment [32], the system named is Candida albicans. Put plainly: Antifungal activity against Candida albicans isolate 12 harboring ERG3 W332R mutant gene assessed as eburicol content in total sterol composition at 0.5 times MIC by GC-MS analysis.
The subject of experiment [33] is Candida albicans. Put plainly: Antifungal activity against Candida albicans isolate 488 harboring ERG3 H243N, T330A, A351V and ERG11 D225G, E266D, E391G, V488I mutant genes assessed as 14alpha-methyl fecosterol content in total sterol composition at 0.5 times MIC by GC-MS analysis.
For experiment [34], the system named is Candida albicans. Put plainly: Antifungal activity against Candida albicans isolate 12 harboring ERG3 W332R mutant gene assessed as 14alpha-methyl fecosterol content in total sterol composition at 0.5 times MIC by GC-MS analysis.
Experiment [35] concerns Candida albicans. Put plainly: Antifungal activity against Candida albicans isolate 177 assessed as 14alpha-methylergosta-8,24(28)-dien-3beta,6alpha-diol content in total sterol composition at 0.5 times MIC by GC-MS analysis.
In experiment [36] the test system is Candida albicans. Put plainly: Antifungal activity against Candida albicans isolate 1008 harboring ERG3 K97E, L193P, V237A, A351V, A353T and ERG11 E266D mutant genes assessed as 14alpha-methyl fecosterol content in total sterol composition at 0.5 times MIC by GC-MS analysis.
The subject of experiment [37] is Candida albicans. Put plainly: Antifungal activity against Candida albicans isolate 177 assessed as 14alpha-methyl fecosterol content in total sterol composition at 0.5 times MIC by GC-MS analysis.
The subject of experiment [38] is Candida albicans. Put plainly: Antifungal activity against Candida albicans isolate 14 assessed as ergosterol content in total sterol composition at 0.5 times MIC by GC-MS analysis.
Experiment [39] relates to Candida albicans. Put plainly: Antifungal activity against Candida albicans isolate 490 harboring ERG3 D147G, T330A, A351V and ERG11 F72S, T229A, E266D, N440S, V488I, R523G mutant genes by broth microdilution method in presence of 10 uM drug efflux inhibitor FK506.
For experiment [40], the system named is Candida albicans. Put plainly: Antifungal activity against Candida albicans isolate 1008 harboring ERG3 K97E, L193P, V237A, A351V, A353T and ERG11 E266D mutant genes by broth microdilution method in presence of 10 uM drug efflux inhibitor FK506.

One may read the MIC as the smallest concentration in the dilution series that meets the test's criterion for growth inhibition. With `C[C@@H]1[C@H](O)[C@@H](C)/C=C/C=C/C=C/C=C/C=C/C=C/C=C/[C@H](O[C@@H]2O[C@H](C)[C@@H](O)[C@H](N)[C@@H]2O)C[C@@H]2O[C@](O)(C[C@@H](O)C[C@@H](O)[C@H](O)CC[C@@H](O)C[C@@H](O)CC(=O)O[C@H]1C)C[C@H](O)[C@H]2C(=O)O` [AMPHOTERICIN B], the minimum inhibitory concentration (MIC) was found to be 0.25 µg/mL (≈ 0.271 µM) in [1]; 0.25 µg/mL (≈ 0.271 µM) in experiment [2]; 0.25 µg/mL (≈ 0.271 µM) in experiment [3]; 1 µg/mL (≈ 1.08 µM) in experiment [4]; 0.25 µg/mL (≈ 0.271 µM) in [5]; 0.5 µg/mL (≈ 0.541 µM) in experiment [6]. This molecule also gave an MIC in [7] of 0.25 µg/mL (≈ 0.271 µM).
For `Clc1ccccc1C(c1ccccc1)(c1ccccc1)n1ccnc1` [CLOTRIMAZOLE], the MIC in experiment [1] was 1 µg/mL (≈ 2.9 µM); in experiment [2], 0.0625 µg/mL (≈ 0.181 µM); in experiment [3], 1 µg/mL (≈ 2.9 µM); in experiment [4] it was 1 µg/mL (≈ 2.9 µM); in [5] it was 1 µg/mL (≈ 2.9 µM); in [6] it was 1 µg/mL (≈ 2.9 µM). For the same molecule, in [7], the MIC worked out at 1 µg/mL (≈ 2.9 µM).
Turning to `CCC(C)n1ncn(-c2ccc(N3CCN(c4ccc(OCC5COC(Cn6cncn6)(c6ccc(Cl)cc6Cl)O5)cc4)CC3)cc2)c1=O` (stereo not drawn) [ITRACONAZOLE], the MIC was 16 µg/mL (≈ 22.7 µM) in experiment [1]; 0.0625 µg/mL (≈ 0.0886 µM) in experiment [2]; > 16 µg/mL in [3]; > 16 µg/mL in [4]; > 16 µg/mL in [5]; > 16 µg/mL in experiment [6]. In experiment [7], this molecule had a minimal inhibitory concentration (MIC) of 16 µg/mL (≈ 22.7 µM).
Take `CC(=O)N1CCN(c2ccc(OCC3COC(Cn4ccnc4)(c4ccc(Cl)cc4Cl)O3)cc2)CC1` (stereo not drawn) [KETOCONAZOLE]: the minimal inhibitory concentration (MIC) in [1] was 16 µg/mL (≈ 30.1 µM); in experiment [2], 0.0625 µg/mL (≈ 0.118 µM); in [3], 8 µg/mL (≈ 15.1 µM); in experiment [4] it was > 16 µg/mL; in [5] it was 8 µg/mL (≈ 15.1 µM); in experiment [6], > 16 µg/mL. Moreover, the lowest concentration to inhibit growth in experiment [7] (MIC) was 16 µg/mL (≈ 30.1 µM).
As for `C[C@@H](c1ncncc1F)[C@](O)(Cn1cncn1)c1ccc(F)cc1F` [VORICONAZOLE], the Activity is 15.8% in [8]; 2.2% in experiment [9]; 69.1% in [10]; 19% in experiment [11]; 37.2% in [12]; 1.8% in experiment [13]. The Activity in experiment [14] is on record as 46.1%; in experiment [15], 8%; in experiment [17], 28.6%; in [19], 13.7%; in experiment [20], 45%; in experiment [21], 7.5%. Moreover, the Activity is 6.3% in experiment [22]; 13.5% in [23]; 5% in experiment [26]; 24.1% in [27]; 2.9% in [29]; 16.2% in experiment [30]. Besides, the Activity in [31] worked out at 4.8%; in experiment [32], 9.9%; in [33], 57.2%; in experiment [34], 69.2%; in experiment [35] it was 35.4%; in experiment [36], 65.1%. In addition, the Activity worked out at 2.9% in experiment [37] and 47.3% in experiment [38]. Moreover, the MIC in experiment [1] was 16 µg/mL (≈ 45.8 µM); in experiment [2], 0.0625 µg/mL (≈ 0.179 µM); in experiment [16], 0.0625 µg/mL; in [3], > 16 µg/mL; in experiment [18], < 0.0625 µg/mL; in experiment [4] it was > 16 µg/mL. Further, the MIC in experiment [24] is > 16 µg/mL; in experiment [25], < 0.0625 µg/mL; in [28], < 0.0625 µg/mL; in experiment [5], > 16 µg/mL; in experiment [39], 0.0625 µg/mL; in experiment [6], > 16 µg/mL. In addition, the figures for the minimal inhibitory concentration (MIC) in [7] and in experiment [40] were 16 µg/mL (≈ 45.8 µM) and > 16 µg/mL, respectively.

The record behind these values is ChEMBL document CHEMBL1687791, “Identification and characterization of four azole-resistant erg3 mutants of Candida albicans” (2010).
